Patent publication US12221448B2, “Selective PI3Kδ inhibitor and use thereof” (TARAPEUTICS SCIENCE INC., priority 2018, dated 2025)

How the values were obtained:
PI3Kα = target: T1, PI3Kα (Homo sapiens, UniProt P42336); assay: In vitro enzyme activity (ADP-Glo) against PI3Kα; format: biochemical; details: Table 2; ATP 10 μM, PIP2:PS 50 μM
T1 construct: purchased Invitrogen (US)
Protocol: (§1) In vitro enzyme activity experiments were performed to determine the IC50 values of the compounds against PI3K family type I kinases (PI3Kα, PI3Kβ, PI3Kγ, PI3Kδ) and type II kinases (PIK3C2A, PIK3C2B). Protein kinases PI3Kα, PI3Kγ, PI3Kδ, PIK3C2A, and PIK3C2B were all purchased from Invitrogen (US); protein kinase PI3Kβ was purchased from sigma (US); the three substrates PIP2: PS, PI and PI: PS were purchased from Invitrogen (US).
(§2) Protein kinases diluted to a certain concentration, i.e., PI3Kα 5.4 μL (with a final concentration of 0.16 ng/μL), PI3Kβ 5.4 μL (with a final concentration of 6 ng/μL), PI3Kδ 5.4 μL (with a final concentration of 1 ng/μL), PI3Kγ 5.4 μL (with a final concentration of 5 ng/μL), PIK3C2A 5.4 μL (with a final concentration of 5 ng/μL), and PIK3C2B 5.4 μL (with a final concentration of 10 ng/μL) were respectively reacted with 1 μL of the serially diluted drug compounds for 1 hour at room temperature (final drug concentrations were 10 μM, 1 μM, 0.3 μM, 0.1 μM, 0.03 μM, 0.01 μM, 0.003 μM, and 0.001 μM, respectively).
(§3) To each reaction tube of the above PI3K family type I kinases, 6 μL of a mixture of ATP (Promega, US) and substrate PIP2:PS (final concentrations of ATP in the reaction systems of kinases PI3Kα, and PI3Kβ were 10 μM, and final concentrations of ATP in the reaction systems of kinases PI3Kδ, and PI3Kγ were 50 μM, and final concentrations of the substrate PIP2:PS were all 50 μM) was added, and reacted at 37° C. for 1 hour. The reaction buffer was 50 mM Hepes (pH 7.5) (Promega, USA), 3 mM MgCl2, 1 mM EGTA (Promega, US), 100 mM NaCl, 0.03% CHAPS (Promega, US).
(§4) 5 μL of kinase solution after reaction was placed in a 384-well plate (Corning, US), and 5 μL of ADP-Glo™ reagent (Promega, US) was added thereto and reacted at room temperature for 40 minutes to stop the kinase reaction and exhaust the remaining ATP; 10 μL of kinase detection reagent was added to convert ADP into ATP, and coupled luciferase/luciferin reaction was utilized to detect the newly synthesized ATP. Envision was utilized for readout and plotting, and Graphpad IC50 value was calculated.

PI3Kβ = target: T2, PI3Kβ (Homo sapiens, UniProt P42338); assay: In vitro enzyme activity (ADP-Glo) against PI3Kβ; format: biochemical; details: Table 2; ATP 10 μM, PIP2:PS 50 μM; read-out: IC50 against PI3Kβ
T2 construct: purchased sigma (US)
Protocol: as §1, §2, §3, §4

PI3Kγ = target: T3, PI3Kγ (Homo sapiens, UniProt P48736); assay: In vitro enzyme activity (ADP-Glo) against PI3Kγ; format: biochemical; details: Table 2; ATP 50 μM, PIP2:PS 50 μM; read-out: IC50 against PI3Kγ
T3 construct: purchased Invitrogen (US)
Protocol: as §1, §2, §3, §4

PI3Kδ = target: T4, PI3Kδ (Homo sapiens, UniProt O00329); assay: In vitro enzyme activity (ADP-Glo) against PI3Kδ; format: biochemical; details: Table 2; ATP 50 μM, PIP2:PS 50 μM
T4 construct: purchased Invitrogen (US)
Protocol: as §1, §2, §3, §4

PIK3C2A = target: T5, PIK3C2A (Homo sapiens, UniProt O00443); assay: In vitro enzyme activity (ADP-Glo) against PIK3C2A; format: biochemical; details: Table 3; ATP 50 μM, substrate PI 100 μM; read-out: IC50 PI3KC2A
T5 construct: purchased Invitrogen (US)
Protocol: as §1, with “(US). […]” for “(US).”
as §4

PIK3C2B = target: T6, PIK3C2B (Homo sapiens, UniProt O00750); assay: In vitro enzyme activity (ADP-Glo) against PIK3C2B; format: biochemical; details: Table 3; ATP 50 μM, substrate PI 100 μM; read-out: IC50 PI3KC2B
T6 construct: purchased Invitrogen (US)
Protocol: as §1, with “(US). […]” for “(US).”
as §4

[1] = test system: rat model of adjuvant arthritis; assay: Efficacy in rat model of rheumatoid arthritis (adjuvant arthritis); format: in vivo, Sprague-Dawley (SD) rats; details: 25 mg/kg/day, oral gavage, once a day
Protocol: In this example, the experimental results of Compound 9 were tested in a rat model of adjuvant arthritis.
(1) Sprague-Dawley (SD) rats, female, weighing 180 g±20 g, were purchased from Beijing Vital River Laboratory Animal Technology Co., Ltd. and maintained in an SPL laboratory. Drinking water and litter were sterilized by autoclaving, and all operations related to the rats were performed under sterile conditions.
(2) In the vehicle group and the treatment group, 10.0 mg/ml CFA (complete Freund's adjuvant, purchased from Sigma, US) was mixed thoroughly, and 0.1 ml of the CFA was injected intracutaneously into the right rear vola pedis of each rat on day 0 to induce inflammation; the normal group was injected with saline in the same way.
(3) Body weight and paw swelling were measured every 3 or 4 days after modeling. […]
(4) The body weight and paw swelling were measured every two days after administration, and the paw swelling was measured with a paw swelling meter. […] After the inflammation, the volume of left rear foot was measured to obtain the swelling degree of the secondary paw (Δm1=|paw volume after injection−paw volume before injection|).

T1 sequence (P42336 whole entry): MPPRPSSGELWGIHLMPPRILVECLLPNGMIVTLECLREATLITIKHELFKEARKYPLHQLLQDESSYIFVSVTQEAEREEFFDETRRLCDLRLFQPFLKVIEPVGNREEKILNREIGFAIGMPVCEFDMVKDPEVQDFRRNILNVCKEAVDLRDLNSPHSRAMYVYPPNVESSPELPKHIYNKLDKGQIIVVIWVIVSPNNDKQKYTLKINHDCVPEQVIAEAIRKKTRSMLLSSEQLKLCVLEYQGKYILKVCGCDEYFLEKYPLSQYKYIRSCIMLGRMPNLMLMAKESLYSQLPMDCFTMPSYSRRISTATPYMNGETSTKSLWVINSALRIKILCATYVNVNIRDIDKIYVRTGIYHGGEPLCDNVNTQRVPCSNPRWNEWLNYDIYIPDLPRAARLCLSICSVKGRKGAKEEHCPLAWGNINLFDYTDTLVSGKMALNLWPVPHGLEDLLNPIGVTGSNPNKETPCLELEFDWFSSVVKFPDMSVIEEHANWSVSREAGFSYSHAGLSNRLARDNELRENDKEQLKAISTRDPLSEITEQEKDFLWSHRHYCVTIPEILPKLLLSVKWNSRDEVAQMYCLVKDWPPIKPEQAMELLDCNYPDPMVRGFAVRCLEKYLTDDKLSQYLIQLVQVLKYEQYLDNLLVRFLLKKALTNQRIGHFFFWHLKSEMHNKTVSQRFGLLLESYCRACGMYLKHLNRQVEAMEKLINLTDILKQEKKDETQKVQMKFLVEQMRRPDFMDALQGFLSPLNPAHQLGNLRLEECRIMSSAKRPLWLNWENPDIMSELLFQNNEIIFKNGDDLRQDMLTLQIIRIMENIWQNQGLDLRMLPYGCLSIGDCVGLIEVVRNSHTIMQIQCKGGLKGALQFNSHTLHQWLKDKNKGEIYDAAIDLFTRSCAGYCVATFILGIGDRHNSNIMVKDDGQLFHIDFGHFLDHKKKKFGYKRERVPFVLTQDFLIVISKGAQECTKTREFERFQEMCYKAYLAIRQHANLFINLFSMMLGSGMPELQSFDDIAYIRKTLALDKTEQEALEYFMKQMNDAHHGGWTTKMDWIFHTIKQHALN
T1 sequence (P27986 whole entry partner): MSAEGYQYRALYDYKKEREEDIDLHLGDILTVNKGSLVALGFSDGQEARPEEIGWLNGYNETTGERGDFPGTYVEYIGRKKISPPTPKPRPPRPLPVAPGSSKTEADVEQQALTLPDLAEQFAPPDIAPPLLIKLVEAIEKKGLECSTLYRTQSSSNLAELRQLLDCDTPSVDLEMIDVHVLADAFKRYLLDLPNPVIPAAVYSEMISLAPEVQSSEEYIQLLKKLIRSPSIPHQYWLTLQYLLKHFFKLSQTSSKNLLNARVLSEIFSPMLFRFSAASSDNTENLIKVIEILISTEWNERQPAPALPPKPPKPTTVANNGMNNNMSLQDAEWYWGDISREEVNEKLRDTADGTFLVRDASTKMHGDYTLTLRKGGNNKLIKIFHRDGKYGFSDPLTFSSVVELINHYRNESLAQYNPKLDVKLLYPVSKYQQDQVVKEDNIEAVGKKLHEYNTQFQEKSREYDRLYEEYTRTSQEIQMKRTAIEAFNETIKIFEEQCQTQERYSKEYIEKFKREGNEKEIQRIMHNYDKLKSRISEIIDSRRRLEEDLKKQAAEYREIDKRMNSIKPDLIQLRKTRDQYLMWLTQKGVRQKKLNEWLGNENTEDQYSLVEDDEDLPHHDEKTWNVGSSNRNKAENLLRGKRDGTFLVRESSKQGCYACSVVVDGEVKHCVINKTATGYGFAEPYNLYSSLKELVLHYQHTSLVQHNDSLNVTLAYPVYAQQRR
T4 sequence (O00329 whole entry): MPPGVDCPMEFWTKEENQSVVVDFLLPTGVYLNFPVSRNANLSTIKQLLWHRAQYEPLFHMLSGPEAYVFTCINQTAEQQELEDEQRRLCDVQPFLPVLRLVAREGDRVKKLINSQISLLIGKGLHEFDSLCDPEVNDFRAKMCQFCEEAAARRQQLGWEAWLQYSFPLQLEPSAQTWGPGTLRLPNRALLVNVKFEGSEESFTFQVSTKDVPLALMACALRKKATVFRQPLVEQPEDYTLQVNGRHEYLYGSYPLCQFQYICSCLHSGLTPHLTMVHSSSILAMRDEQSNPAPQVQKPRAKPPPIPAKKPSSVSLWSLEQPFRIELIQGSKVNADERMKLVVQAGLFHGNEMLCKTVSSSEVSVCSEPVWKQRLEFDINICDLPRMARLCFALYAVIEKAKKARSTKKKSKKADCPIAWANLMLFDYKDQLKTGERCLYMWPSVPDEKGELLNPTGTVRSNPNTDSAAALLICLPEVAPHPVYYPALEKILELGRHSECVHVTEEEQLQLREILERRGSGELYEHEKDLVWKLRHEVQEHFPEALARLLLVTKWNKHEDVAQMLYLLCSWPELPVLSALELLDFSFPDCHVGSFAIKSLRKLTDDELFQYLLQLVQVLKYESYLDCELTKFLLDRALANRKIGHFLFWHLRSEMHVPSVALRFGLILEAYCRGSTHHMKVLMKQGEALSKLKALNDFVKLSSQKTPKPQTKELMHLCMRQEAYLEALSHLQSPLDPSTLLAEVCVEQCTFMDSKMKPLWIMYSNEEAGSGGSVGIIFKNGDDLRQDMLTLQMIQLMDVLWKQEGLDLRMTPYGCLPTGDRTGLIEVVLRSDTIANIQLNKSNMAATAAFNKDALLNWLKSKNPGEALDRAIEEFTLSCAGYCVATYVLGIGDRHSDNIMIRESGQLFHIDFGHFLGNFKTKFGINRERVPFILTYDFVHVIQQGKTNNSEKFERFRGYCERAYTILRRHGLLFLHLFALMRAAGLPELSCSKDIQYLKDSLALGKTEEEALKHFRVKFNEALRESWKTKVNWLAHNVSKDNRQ
T4 sequence (P27986 whole entry partner): as the sequence (P27986 whole entry partner) above
T3 sequence (P48736 whole entry): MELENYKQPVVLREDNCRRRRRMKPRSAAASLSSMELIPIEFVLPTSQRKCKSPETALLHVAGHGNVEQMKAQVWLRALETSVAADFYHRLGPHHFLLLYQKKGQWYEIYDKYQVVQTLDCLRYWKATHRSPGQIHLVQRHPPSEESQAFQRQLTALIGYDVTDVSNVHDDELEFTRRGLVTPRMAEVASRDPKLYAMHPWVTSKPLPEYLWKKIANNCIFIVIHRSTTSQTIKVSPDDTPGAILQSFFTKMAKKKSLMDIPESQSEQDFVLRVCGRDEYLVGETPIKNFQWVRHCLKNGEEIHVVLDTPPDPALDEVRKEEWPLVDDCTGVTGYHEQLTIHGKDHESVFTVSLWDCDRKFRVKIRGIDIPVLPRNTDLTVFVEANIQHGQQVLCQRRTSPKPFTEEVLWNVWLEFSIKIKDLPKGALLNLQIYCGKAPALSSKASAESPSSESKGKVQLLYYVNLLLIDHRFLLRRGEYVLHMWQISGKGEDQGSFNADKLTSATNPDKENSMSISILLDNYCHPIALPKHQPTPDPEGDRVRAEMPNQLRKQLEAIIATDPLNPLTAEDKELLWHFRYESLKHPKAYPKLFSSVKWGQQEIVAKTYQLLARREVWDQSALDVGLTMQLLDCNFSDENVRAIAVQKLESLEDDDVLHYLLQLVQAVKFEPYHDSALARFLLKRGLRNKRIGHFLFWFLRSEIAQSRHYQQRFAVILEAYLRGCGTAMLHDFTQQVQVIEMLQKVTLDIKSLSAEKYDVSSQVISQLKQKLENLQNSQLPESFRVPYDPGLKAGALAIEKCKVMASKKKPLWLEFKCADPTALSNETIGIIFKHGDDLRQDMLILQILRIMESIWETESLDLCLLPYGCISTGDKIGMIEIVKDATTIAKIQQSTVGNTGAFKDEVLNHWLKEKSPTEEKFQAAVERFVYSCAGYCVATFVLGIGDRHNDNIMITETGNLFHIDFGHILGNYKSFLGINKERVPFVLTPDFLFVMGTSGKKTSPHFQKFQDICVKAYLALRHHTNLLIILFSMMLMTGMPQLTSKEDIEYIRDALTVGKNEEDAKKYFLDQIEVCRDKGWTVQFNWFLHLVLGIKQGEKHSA
T2 sequence (P42338 whole entry): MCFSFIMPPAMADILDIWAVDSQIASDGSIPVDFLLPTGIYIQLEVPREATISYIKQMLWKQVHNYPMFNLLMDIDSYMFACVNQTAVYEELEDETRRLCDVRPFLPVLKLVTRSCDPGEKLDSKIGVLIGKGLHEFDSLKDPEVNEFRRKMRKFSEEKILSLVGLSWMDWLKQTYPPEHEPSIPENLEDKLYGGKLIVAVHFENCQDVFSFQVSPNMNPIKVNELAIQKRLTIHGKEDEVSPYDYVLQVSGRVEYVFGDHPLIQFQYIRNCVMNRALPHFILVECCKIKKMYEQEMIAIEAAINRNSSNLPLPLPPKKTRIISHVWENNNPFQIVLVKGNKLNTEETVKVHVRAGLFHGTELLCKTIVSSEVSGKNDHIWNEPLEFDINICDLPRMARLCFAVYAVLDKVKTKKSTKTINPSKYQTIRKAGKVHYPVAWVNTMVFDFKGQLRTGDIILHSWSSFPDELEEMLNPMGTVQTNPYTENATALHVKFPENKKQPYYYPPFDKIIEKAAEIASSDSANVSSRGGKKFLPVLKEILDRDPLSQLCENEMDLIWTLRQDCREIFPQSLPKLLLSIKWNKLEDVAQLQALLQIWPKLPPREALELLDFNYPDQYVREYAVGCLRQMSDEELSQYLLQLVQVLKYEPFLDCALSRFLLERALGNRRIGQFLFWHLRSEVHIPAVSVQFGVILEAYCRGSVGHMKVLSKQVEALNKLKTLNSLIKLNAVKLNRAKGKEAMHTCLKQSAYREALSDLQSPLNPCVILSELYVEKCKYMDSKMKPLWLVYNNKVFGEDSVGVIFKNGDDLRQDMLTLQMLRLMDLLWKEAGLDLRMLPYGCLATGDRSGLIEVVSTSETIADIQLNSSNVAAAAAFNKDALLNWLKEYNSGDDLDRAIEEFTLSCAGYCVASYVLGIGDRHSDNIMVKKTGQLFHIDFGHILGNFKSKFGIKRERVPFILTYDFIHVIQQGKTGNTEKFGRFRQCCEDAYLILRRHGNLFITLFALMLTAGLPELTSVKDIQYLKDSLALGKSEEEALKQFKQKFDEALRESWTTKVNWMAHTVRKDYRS
T2 sequence (P27986 whole entry partner): as the sequence (P27986 whole entry partner) above

Compound	IC50 (PI3Kα) [µM]	IC50 (PI3Kβ) [µM]	IC50 (PI3Kγ) [µM]	IC50 (PI3Kδ) [µM]	IC50 (PIK3C2A) [µM]	IC50 (PIK3C2B) [µM]	effect on the body weight of rats ([1]; 14 days, FIG. 1a)	paw swelling as compared with the vehicle group ([1]; after 14 days of administration, FIG. 1b)
COc1ccc(-c2nn(C(C)c3nc4cccc(F)c4c(=O)n3C3CCC3)c3ncnc(N)c23)cc1F (centres unmarked) [Compound 1, 2-(1-(4-amino-3-(3-fluoro-4-methoxyphenyl)-1H-pyrazolo [3,4-d]pyrimidin-1-yl)ethyl)-3-cyclobutyl-5-fluoroquinazolin-4(3H)-one]	7.41	2.96	4.09	0.0274				
COc1ccc(-c2nn(C(C)c3nc4cccc(F)c4c(=O)n3C3CCCC3)c3ncnc(N)c23)cc1F (centres unmarked) [Compound 5, 2-(1-(4-amino-3-(3-fluoro-4-methoxyphenyl)-1H-pyrazolo [3,4-d]pyrimidin-1-yl)ethyl)-3-cyclopentyl-5-fluoroquinazolin-4(3H)-one]	5.52	> 10	1.72	0.0186				
COc1ccc(-c2nn(Cc3nc4cccc(F)c4c(=O)n3C3CC3)c3ncnc(N)c23)cc1F [Compound 6, 2-((4-amino-3-(3-fluoro-4-methoxyphenyl)-1H-pyrazolo [3,4-d]pyrimidin-1-yl)methyl)-3-cyclopropyl-5-fluoroquinazolin-4(3H)-one]	1.69	0.523	0.299	0.031				
COc1ccc(-c2nn(C(C)c3nc4cccc(F)c4c(=O)n3C3CC3)c3ncnc(N)c23)cc1F (centres unmarked) [Compound 8, 2-(1-(4-amino-3-(3-fluoro-4-methoxyphenyl)-1H-pyrazolo [3,4-d]pyrimidin-1-yl)ethyl)-3-cyclopropyl-5-fluoroquinazolin-4(3H)-one]	1.72	1.3	0.148	0.014				
CCC(c1nc2cccc(F)c2c(=O)n1C1CC1)n1nc(-c2ccc(OC)c(F)c2)c2c(N)ncnc21 (centres unmarked) [Compound 9, 2-(1-(4-amino-3-(3-fluoro-4-methoxyphenyl)-1H-pyrazolo [3,4-d]pyrimidin-1-yl)propyl)-3-cyclopropyl-5-fluoroquinazolin-4(3H)-one]	3.35	1.16	0.685	0.0173	> 10	9.96	no significant effect	significantly reduced
CCC(c1nc2ccccc2c(=O)n1C1CC1)n1nc(-c2ccc(OC)c(F)c2)c2c(N)ncnc21 (centres unmarked) [Compound 11, 2-(1-(4-amino-3-(3-fluoro-4-methoxyphenyl)-1H-pyrazolo [3,4-d]pyrimidin-1-yl)propyl)-3-cyclopropylquinazolin-4(3H)-one]		0.27	0.389	0.0183				
COc1ccc(-c2nn(C(C)c3nc4cccc(F)c4c(=O)n3C3CCCC3)c3ncnc(N)c23)cc1 (centres unmarked) [Compound 14, 2-(1-(4-amino-3-(4-methoxyphenyl)-1H-pyrazolo [3,4-d]pyrimidin-1-yl)ethyl)-3-cyclopentyl-5-fluoroquinazolin-4(3H)-one]		> 10	> 10	0.0319				
COc1ccc(-c2nn(C(C)c3nc4cccc(F)c4c(=O)n3C3CCC3)c3ncnc(N)c23)cc1 (centres unmarked) [Compound 19, 2-(1-(4-amino-3-(4-methoxyphenyl)-1H-pyrazolo [3,4-d]pyrimidin-1-yl)ethyl)-3-cyclobutyl-5-fluoroquinazolin-4(3H)-one]		0.547	0.689	0.0379				
COc1ccc(-c2nn(C(C)c3nc4ccc(F)cc4c(=O)n3C3CC3)c3ncnc(N)c23)cc1F (centres unmarked) [Compound 22, 2-(1-(4-amino-3-(3-fluoro-4-methoxyphenyl)-1H-pyrazolo [3,4-d]pyrimidin-1-yl)ethyl)-3-cyclopropyl-6-fluoroquinazolin-4(3H)-one]	1.69	0.344	0.485	0.0041				
CCC(c1nc2ccc(F)cc2c(=O)n1C1CC1)n1nc(-c2ccc(OC)c(F)c2)c2c(N)ncnc21 (centres unmarked) [Compound 23, 2-(1-(4-amino-3-(3-fluoro-4-methoxyphenyl)-1H-pyrazolo [3,4-d]pyrimidin-1-yl)propyl)-3-cyclopropyl-6-fluoroquinazolin-4(3H)-one]	6.44	0.999	0.922	0.0095				
COc1ccc(-c2nn(C(C)c3nc4cccc(F)c4c(=O)n3C3CCC3)c3ncnc(N)c23)cc1OC (centres unmarked) [Compound 27, 2-(1-(4-amino-3-(3,4-dimethoxyphenyl)-1H-pyrazolo [3,4-d]pyrimidin-1-yl)ethyl)-3-cyclobutyl-5-fluoroquinazolin-4(3H)-one]	1.1		0.434	0.0103				
COc1ccc(-c2nn(C(C)c3nc4ccccc4c(=O)n3C3CCC3)c3ncnc(N)c23)cc1 (centres unmarked) [Compound 37, 2-(1-(4-amino-3-(4-methoxyphenyl)-1H-pyrazolo [3,4-d]pyrimidin-1-yl)ethyl)-3-cyclobutylquinazolin-4(3H)-one]	4.21	3.28	0.753	0.001				
COc1ccc(-c2nn(C(C)c3nc4ccccc4c(=O)n3C3CCC3)c3ncnc(N)c23)cc1OC (centres unmarked) [Compound 38, 2-(1-(4-amino-3-(3,4-dimethoxyphenyl)-1H-pyrazolo [3,4-d]pyrimidin-1-yl)ethyl)-3-cyclobutylquinazolin-4(3H)-one]	2.23	0.581	0.261	0.00959				
COc1ccc(-c2nn(C(C)c3nc4ccc(F)cc4c(=O)n3C3CC3)c3ncnc(N)c23)cc1 (centres unmarked) [Compound 42, 2-(1-(4-amino-3-(4-methoxyphenyl)-1H-pyrazolo [3,4-d]pyrimidin-1-yl)ethyl)-3-cyclopropyl-6-fluoroquinazolin-4(3H)-one]	3.77	0.69	0.576	0.0083				
CC[C@@H](c1nc2cccc(F)c2c(=O)n1C1CC1)n1nc(-c2ccc(OC)c(F)c2)c2c(N)ncnc21 [Compound 81, 2-((S)-1-(4-amino-3-(3-fluoro-4-methoxyphenyl)-1H-pyrazolo [3,4-d]pyrimidin-1-yl)propyl)-3-cyclopropyl-5-fluoroquinazolin-4(3H)-one]		0.79	0.471	0.0164				
